Test results: PubChem BioAssay AID2060508 (Molecular Pharmacology Branch, DTP, NCI, 2025)
pIC50: −log10 of the molar value.

Tested on: 454973-116-R2-J3-PDC spheroids, viability, % test/control
Test: Anticancer human tumor 454973-116-R2-J3-PDC patient-derived pancreatic carcinoma cell line growth inhibition [GQUAD]
Settings: spheroids with HUVEC and MSC; for pIC50: curve of first compound; for viability, T/C: stronger effect = lower value
Method in brief: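 Multi-cell-type spheroids of tumor cells with HUVEC and mesenchymal stem cells, treated with drug combinations. Concentrations descend in half-log steps from near clinical Cmax, or from 10 microM where Cmax is unknown; viability read-out.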

[1] = second compound 0.0316 µM, first compound 0.0316 µM
[2] = second compound 0.0316 µM, first compound 0.1 µM
[3] = second compound 0.0316 µM, first compound 0.316 µM
[4] = second compound 0.0316 µM, first compound 1 µM
[5] = second compound 0.0316 µM, first compound 3.16 µM
[6] = second compound 0.0316 µM, first compound 10 µM
[7] = second compound 0.1 µM, first compound 0.0316 µM
[8] = second compound 0.1 µM, first compound 0.1 µM
[9] = second compound 0.1 µM, first compound 0.316 µM
[10] = second compound 0.1 µM, first compound 1 µM
[11] = second compound 0.1 µM, first compound 3.16 µM
[12] = second compound 0.1 µM, first compound 10 µM
[13] = second compound 0.316 µM, first compound 0.0316 µM
[14] = second compound 0.316 µM, first compound 0.1 µM
[15] = second compound 0.316 µM, first compound 0.316 µM
[16] = second compound 0.316 µM, first compound 1 µM
[17] = second compound 0.316 µM, first compound 3.16 µM
[18] = second compound 0.316 µM, first compound 10 µM
[19] = second compound 1 µM, first compound 0.0316 µM
[20] = second compound 1 µM, first compound 0.1 µM
[21] = second compound 1 µM, first compound 0.316 µM
[22] = second compound 1 µM, first compound 1 µM
[23] = second compound 1 µM, first compound 3.16 µM
[24] = second compound 1 µM, first compound 10 µM
[25] = second compound 3.16 µM, first compound 0.0316 µM
[26] = second compound 3.16 µM, first compound 0.1 µM
[27] = second compound 3.16 µM, first compound 0.316 µM
[28] = second compound 3.16 µM, first compound 1 µM
[29] = second compound 3.16 µM, first compound 3.16 µM
[30] = second compound 3.16 µM, first compound 10 µM
[31] = second compound 10 µM, first compound 0.0316 µM
[32] = second compound 10 µM, first compound 0.1 µM
[33] = second compound 10 µM, first compound 0.316 µM
[34] = second compound 10 µM, first compound 1 µM
[35] = second compound 10 µM, first compound 3.16 µM
[36] = second compound 10 µM, first compound 10 µM
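Further: spheroids exposed to compounds for seven days.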
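Wherever viability, T/C is given: 100% = DMSO vehicle control viability.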

With CCCS(=O)(=O)Nc1ccc(F)c(C(=O)c2c[nH]c3ncc(-c4ccc(Cl)cc4)cc23)c1F + Cc1[nH]c2ccc(F)cc2c1-c1nc2c3cccnc3c3ncccc3c2[nH]1 the pIC50 (second compound 0.0316 µM) was 5.22, the pIC50 (second compound 0.1 µM) was 5.25 and the pIC50 (second compound 0.316 µM) was 5.20. The pIC50 (second compound 1 µM) was 5.20, the pIC50 (second compound 3.16 µM) was 5.19 and the pIC50 (second compound 10 µM) was 5.19. It also gave a viability, T/C [1] of 114%, a viability, T/C [2] of 117% and a viability, T/C [3] of 127%. It also gave a viability, T/C [4] of 116%, a viability, T/C [5] of 101% and a viability, T/C [6] of 8.25%. The viability, T/C [7] was 112%, the viability, T/C [8] was 118% and the viability, T/C [9] was 113%. It also gave a viability, T/C [10] of 118%, a viability, T/C [11] of 92.7% and a viability, T/C [12] of 8.04%. It also gave a viability, T/C [13] of 112%, a viability, T/C [14] of 107% and a viability, T/C [15] of 102%. It also gave a viability, T/C [16] of 113%, a viability, T/C [17] of 113% and a viability, T/C [18] of 9.5%. For the same compound, the viability, T/C [19] was 104%, the viability, T/C [20] was 102% and the viability, T/C [21] was 114%. The viability, T/C [22] was 128%, the viability, T/C [23] was 115% and the viability, T/C [24] was 8.32%. The viability, T/C [25] was 109%, the viability, T/C [26] was 115% and the viability, T/C [27] was 114%. It also gave a viability, T/C [28] of 98.6%, a viability, T/C [29] of 112% and a viability, T/C [30] of 13.3%. The viability, T/C [31] was 107%, the viability, T/C [32] was 101% and the viability, T/C [33] was 116%. For the same compound, the viability, T/C [34] was 110%, the viability, T/C [35] was 106% and the viability, T/C [36] was 14.4%.

Cc1[nH]c2ccccc2c1CCNCc1ccc(/C=C/C(=O)NO)cc1 + Cc1[nH]c2ccc(F)cc2c1-c1nc2c3cccnc3c3ncccc3c2[nH]1 was tested, and the pIC50 (second compound 0.0316 µM) was 7.13, the pIC50 (second compound 0.1 µM) was 7.12 and the pIC50 (second compound 0.316 µM) was 7.11. It also gave a pIC50 (second compound 1 µM) of 7.16, a pIC50 (second compound 3.16 µM) of 7.14 and a pIC50 (second compound 10 µM) of 7.09. The viability, T/C (second compound 0.0316 µM, first compound 0.000999 µM) was 107%, the viability, T/C (second compound 0.0316 µM, first compound 0.00316 µM) was 104% and the viability, T/C (second compound 0.0316 µM, first compound 0.00999 µM) was 104%. It also gave a viability, T/C [1] of 85.7%, a viability, T/C (second compound 0.0316 µM, first compound 0.0999 µM) of 37.6% and a viability, T/C [3] of 6.79%. It also gave a viability, T/C (second compound 0.1 µM, first compound 0.000999 µM) of 104%, a viability, T/C (second compound 0.1 µM, first compound 0.00316 µM) of 109% and a viability, T/C (second compound 0.1 µM, first compound 0.00999 µM) of 108%. The viability, T/C [7] was 94.5%, the viability, T/C (second compound 0.1 µM, first compound 0.0999 µM) was 36% and the viability, T/C [9] was 7.21%. For the same compound, the viability, T/C (second compound 0.316 µM, first compound 0.000999 µM) was 110%, the viability, T/C (second compound 0.316 µM, first compound 0.00316 µM) was 110% and the viability, T/C (second compound 0.316 µM, first compound 0.00999 µM) was 90.4%. For the same compound, the viability, T/C [13] was 88.8%, the viability, T/C (second compound 0.316 µM, first compound 0.0999 µM) was 38.3% and the viability, T/C [15] was 6.45%. It also gave a viability, T/C (second compound 1 µM, first compound 0.000999 µM) of 106%, a viability, T/C (second compound 1 µM, first compound 0.00316 µM) of 97.5% and a viability, T/C (second compound 1 µM, first compound 0.00999 µM) of 99.1%. For the same compound, the viability, T/C [19] was 79.8%, the viability, T/C (second compound 1 µM, first compound 0.0999 µM) was 35.3% and the viability, T/C [21] was 9.42%. It also gave a viability, T/C (second compound 3.16 µM, first compound 0.000999 µM) of 99.7%, a viability, T/C (second compound 3.16 µM, first compound 0.00316 µM) of 94.3% and a viability, T/C (second compound 3.16 µM, first compound 0.00999 µM) of 85.3%. For the same compound, the viability, T/C [25] was 86.6%, the viability, T/C (second compound 3.16 µM, first compound 0.0999 µM) was 36.2% and the viability, T/C [27] was 9.17%. It also gave a viability, T/C (second compound 10 µM, first compound 0.000999 µM) of 96.2%, a viability, T/C (second compound 10 µM, first compound 0.00316 µM) of 87.9% and a viability, T/C (second compound 10 µM, first compound 0.00999 µM) of 92.3%. The viability, T/C [31] was 75.5%, the viability, T/C (second compound 10 µM, first compound 0.0999 µM) was 44.6% and the viability, T/C [33] was 11%.

O=C(NO)c1cnc(N2CCN(S(=O)(=O)c3ccc4ccccc4c3)CC2)nc1 + Cc1[nH]c2ccc(F)cc2c1-c1nc2c3cccnc3c3ncccc3c2[nH]1 was tested, and the pIC50 (second compound 0.0316 µM) was 6.66, the pIC50 (second compound 0.1 µM) was 6.44 and the pIC50 (second compound 0.316 µM) was 6.42. For the same compound, the pIC50 (second compound 1 µM) was 6.32, the pIC50 (second compound 3.16 µM) was 6.33 and the pIC50 (second compound 10 µM) was 6.27. The viability, T/C [1] was 108%, the viability, T/C [2] was 84.8% and the viability, T/C [3] was 35.3%. For the same compound, the viability, T/C [4] was 2.53%, the viability, T/C [5] was 0.14% and the viability, T/C [6] was 0.29%. It also gave a viability, T/C [7] of 108%, a viability, T/C [8] of 104% and a viability, T/C [9] of 55.7%. For the same compound, the viability, T/C [10] was 4.86%, the viability, T/C [11] was 0.14% and the viability, T/C [12] was 0.64%. For the same compound, the viability, T/C [13] was 121%, the viability, T/C [14] was 96.2% and the viability, T/C [15] was 62.1%. The viability, T/C [16] was 10%, the viability, T/C [17] was 0.1% and the viability, T/C [18] was 1.14%. It also gave a viability, T/C [19] of 89.6%, a viability, T/C [20] of 92.1% and a viability, T/C [21] of 73%. The viability, T/C [22] was 8.33%, the viability, T/C [23] was 0.1% and the viability, T/C [24] was 0.86%. It also gave a viability, T/C [25] of 105%, a viability, T/C [26] of 93.7% and a viability, T/C [27] of 66.9%. For the same compound, the viability, T/C [28] was 18.1%, the viability, T/C [29] was 0.16% and the viability, T/C [30] was 0.16%. For the same compound, the viability, T/C [31] was 93.6%, the viability, T/C [32] was 90.2% and the viability, T/C [33] was 76.9%. For the same compound, the viability, T/C [34] was 17.7%, the viability, T/C [35] was 0.22% and the viability, T/C [36] was 0.21%.
